Reference: patent publication US4743594A, “Antibiotic, antitumor compounds and their use” (priority 1984, dated 1988)
≈ marks a conversion by molar mass, not a printed value.

Experiments:
[1] = system: Sarcina lutea (ATCC 9341); assay: in-vitro antibacterial activity, agar dilution (MIC); type: cell-based; conditions: Micrococcus luteus, ATCC9341, MHA, 48 hrs, pH 7.4, read-out: Minimum Inhibitory Concentration (MIC)
Experimental: (§1) Antibiotics AT 2433 A1, AT 2433 A2, and AT 2433 B1 and AT 2433 B2 were tested in-vitro to determine anti-bacterial activity against a variety of gram-positive and gram-negative organisms
(§2) The in-vitro antibacterial activity tests were performed via conventional agar dilution methods in Muell-Hintom agar (MHA) at pH 7.4.

[2] = system: gram-positive bacteria; assay: antibacterial activity against gram-positive bacteria; type: cell-based
Experimental: as §1, §2

[3] = system: E. Coli SS 1431; assay: in-vitro antibacterial activity, agar dilution (MIC); type: cell-based; conditions: Escherichia coli, MHA, 48 hrs, pH 7.4
Experimental: as §1, §2

[4] = system: gram-negative bacteria; assay: antibacterial activity against gram-negative bacteria; type: cell-based
Experimental: as §1, §2

[5] = system: P-388 leukemia; assay: in-vivo antitumor activity against transplanted mouse P-388 leukemia (NCI test); conditions: for MST (% T/C): >125 = significant antitumor activity; for in-vivo antitumor activity: P-388 leukemia in mice
Experimental: (§3) Anti-tumor activity was determined by the standard National Cancer Institute test which was published in Cancer Chemothr. Rep. 3:1-103, 1972.
(§4) In the test, 10^6 cells (a lethal dose) per mouse of P-388 leukemia are administered interperitoneally on day 0. The test compounds are serially diluted (1:2, 1:4, 1:8, etc.) and each dilution is administered interperitoneally to the mice on days 1, 4 and 7.
(§5) ^1 Tumor inoculum: 10^6 ascites cells, ip
(§6) ^2 Host: CDF1 male mice
(§7) ^3 Treatment schedule: For AT 2433 A1 and B1, ip. days 1, 4
(§8) ^4 Tox: Toxic, i.e., <4/6 mice alive on day 5
(§9) ^5 MST: Median survived time in days
(§10) ^6 % T/C: (MSTTreated/MST-Control) × 100
(§11) ^7 Criteria: If % T/C >125, the test compound is considered to exhibi
(§12) significant antitumor activity at that dose.

[6] = as above; conditions: mouse, in vivo; every 3rd day for 3 injections, ip; read-out: maximum tolerated dose (no day 5 or earlier deaths due to toxicity)
Experimental: as §3, §4, §5, §6, §7, §8, §9, §10, §11, §12

[7] = 0.5 mg/kg/inj, ip, days 1, 4 and 7
[8] = 0.5 mg/kg/inj, ip, days 1, 4 and 7, CDF1 male mice
[9] = 1 mg/kg/inj, ip, days 1, 4 and 7
[10] = 1 mg/kg/inj, ip, days 1, 4 and 7, CDF1 male mice
[11] = 2 mg/kg/inj, ip, days 1, 4 and 7
[12] = 2 mg/kg/inj, ip, days 1, 4 and 7, CDF1 male mice
[13] = 4 mg/kg/inj, ip, days 1, 4 and 7
[14] = 4 mg/kg/inj, ip, days 1, 4 and 7, CDF1 male mice
[15] = 8 mg/kg/inj, ip, days 1, 4 and 7
[16] = 8 mg/kg/inj, ip, days 1, 4 and 7, CDF1 male mice
[17] = 16 mg/kg/inj, ip, days 1, 4 and 7
[18] = 16 mg/kg/inj, ip, days 1, 4 and 7, CDF1 male mice

Row | SMILES | MIC [1] [mg/L] | antibacterial activity against gram-positive bacteria [2] | MST (% T/C) [5, 7] [%] | MST (median survived time) [5, 8] [days] | Avg. wt. change, gm on day 5 [5, 7] [gm] | Survivors day 5 [5, 7] | MST (% T/C) [5, 9] [%] | MST (median survived time) [5, 10] [days] | Avg. wt. change, gm on day 5 [5, 9] [gm] | Survivors day 5 [5, 9] | MST (% T/C) [5, 11] [%] | MST (median survived time) [5, 12] [days] | Avg. wt. change, gm on day 5 [5, 11] [gm] | Survivors day 5 [5, 11] | MST (% T/C) [5, 13] [%] | MST (median survived time) [5, 14] [days] | Avg. wt. change, gm on day 5 [5, 13] [gm] | Survivors day 5 [5, 13] | MST (% T/C) [5, 15] [%] | MST (median survived time) [5, 16] [days] | further results
1 | COC1C(COC2CC(O)C(N)CO2)OC(n2c3c(Cl)cccc3c3c4c(c5c6ccccc6[nH]c5c32)C(=O)N(C)C4=O)C(O)C1O (stereo not drawn) [AT 2433 A2] | 1 (≈ 1.5 µM) | active |  |  |  |  |  |  |  |  |  |  |  |  |  |  |  |  |  |  | 
2 | COC1C(COC2CC(O)C(N)CO2)OC(n2c3ccccc3c3c4c(c5c6ccccc6[nH]c5c32)C(=O)N(C)C4=O)C(O)C1O (stereo not drawn) [AT 2433 B2] | 4 (≈ 6.34 µM) | active |  |  |  |  |  |  |  |  |  |  |  |  |  |  |  |  |  |  | 
3 | CNC1COC(OCC2OC(n3c4ccccc4c4c5c(c6c7ccccc7[nH]c6c43)C(=O)N(C)C5=O)C(O)C(O)C2OC)CC1O (stereo not drawn) [AT 2433 B1] | 0.25 (≈ 0.388 µM) | active | 111 | 10.0 | 3.0 | 5/5 | 117 | 10.5 | 3.0 | 5/5 | 122 | 11.0 | 0.0 | 6/6 | 133 | 12.0 | -0.6 | 6/6 | 133 | 12.0 | MIC [3]: 16 mg/L (≈ 24.8 µM); antibacterial activity against gram-negative bacteria [4]: exhibit antibacterial activity; Avg. wt. change, gm on day 5 [5, 15]: -0.3 gm; Survivors day 5 [5, 15]: 6/6; MST (% T/C) [5, 17]: 144%; MST (median survived time) [5, 18]: 13.0 days; Avg. wt. change, gm on day 5 [5, 17]: -0.7 gm; Survivors day 5 [5, 17]: 6/6; in-vivo antitumor activity [5]: exhibited in-vivo antitumor activity; tumor growth inhibition ([5]; highest dose tested, 16 mg/kg): inhibitory to tumor growth but less effective than AT 2433 A1
4 | CNC1COC(OCC2OC(n3c4c(Cl)cccc4c4c5c(c6c7ccccc7[nH]c6c43)C(=O)N(C)C5=O)C(O)C(O)C2OC)CC1O (stereo not drawn) [AT 2433 A1] | 0.25 (≈ 0.368 µM) | active | 150 | 13.5 | -0.2 | 6/6 | 150 | 13.5 | -0.7 | 6/6 | 172 | 15.5 | -2.2 | 6/6 | 156 | 14.0 | -2.3 | 5/6 | 194 | 17.5 | MTD [6]: 2 mg/kg; increase in life span over controls ([5]; 2 mg/kg given every 3rd day for 3 injections): 72%; Avg. wt. change, gm on day 5 [5, 15]: -4.1 gm; Survivors day 5 [5, 15]: 4/6; MST (% T/C) (toxicity flag) [5, 18]: Tox (Toxic, i.e., <4/6 mice alive on day 5); MST (toxicity flag) [5, 18]: Tox (Toxic, i.e., <4/6 mice alive on day 5); Avg. wt. change, gm on day 5 [5, 17]: -3.2 gm; Survivors day 5 [5, 17]: 2/6; in-vivo antitumor activity [5]: exhibited in-vivo antitumor activity
